This passage reports MIC results from ChEMBL document CHEMBL1126376, “Synthesis and activities of 9-pyrrolo-9-deoxoerythromycin a analogs” (1992).

SMILES strings stand for the structures. Values after ≈ are worked out from the molar mass of the structure shown. A value given as a limit tells only on which side of the number the result lay.

Among the test systems are Streptococcus pyogenes; Streptococcus pneumoniae; Haemophilus influenzae; Enterococcus faecalis; Staphylococcus aureus.
Assay in all cases: microbe, parasite or virus in culture
Type in all cases: functional

The subject of assay [1] is Staphylococcus epidermidis.
Description: In vitro minimum inhibitory concentration against Staphylococcus epidermidis (MB 5414) was determined

Description for Enterococcus faecalis: In vitro minimum inhibitory concentration against Enterococcus faecalis (MB 5407) was determined
Description for Haemophilus influenzae: In vitro minimum inhibitory concentration against Haemophilus influenzae (MB 5363) was determined
Description for Staphylococcus aureus: In vitro minimum inhibitory concentration against Staphylococcus aureus (MB 2865) was determined
Description for Streptococcus pneumoniae: In vitro minimum inhibitory concentration against Streptococcus pneumoniae (CL 2883) was determined
Description for Streptococcus pyogenes: In vitro minimum inhibitory concentration against Streptococcus pyogenes (MB 2874) was determined

On to `CC[C@H]1OC(=O)[C@H](C)[C@@H](O[C@H]2C[C@@](C)(OC)[C@@H](O)[C@H](C)O2)[C@H](C)[C@@H](O[C@@H]2O[C@H](C)C[C@H](N(C)C)[C@H]2O)[C@](C)(O)C[C@@H](C)[C@H](n2ccc(C=O)c2)[C@H](C)[C@@H](O)[C@]1(C)O`, for which the MIC against Streptococcus pyogenes worked out at 32 µg/mL (≈ 39.4 µM); in the assay on Streptococcus pneumoniae it was 64 µg/mL (≈ 78.7 µM); in the assay with Haemophilus influenzae, 64 µg/mL (≈ 78.7 µM); with Enterococcus faecalis, 64 µg/mL (≈ 78.7 µM); with Staphylococcus aureus, 32 µg/mL (≈ 39.4 µM); in assay [1] it was 32 µg/mL (≈ 39.4 µM).

In the case of `CC[C@H]1OC(=O)[C@H](C)[C@@H](O[C@H]2C[C@@](C)(OC)[C@@H](O)[C@H](C)O2)[C@H](C)[C@@H](O[C@@H]2O[C@H](C)C[C@H](N(C)C)[C@H]2O)[C@](C)(O)C[C@@H](C)[C@H](n2cccc2)[C@H](C)[C@@H](O)[C@]1(C)O`, the MIC turned out to be 4 µg/mL (≈ 5.1 µM) against Streptococcus pyogenes; 4 µg/mL (≈ 5.1 µM) in the assay on Streptococcus pneumoniae; 128 µg/mL (≈ 163 µM) in the assay with Haemophilus influenzae; 64 µg/mL (≈ 81.5 µM) against Enterococcus faecalis; 64 µg/mL (≈ 81.5 µM) in the assay on Staphylococcus aureus; 32 µg/mL (≈ 40.8 µM) in assay [1].

Take `CC[C@H]1OC(=O)[C@H](C)[C@@H](O[C@H]2C[C@@](C)(OC)[C@@H](O)[C@H](C)O2)[C@H](C)[C@@H](O[C@@H]2O[C@H](C)C[C@H](N(C)C)[C@H]2O)[C@](C)(O)C[C@@H](C)[C@H](n2ccc(O)c2C(=O)OC(C)(C)C)[C@H](C)[C@@H](O)[C@]1(C)O`: the MIC in the assay on Streptococcus pyogenes amounted to 0.25 µg/mL (≈ 0.277 µM); against Streptococcus pneumoniae it was 0.5 µg/mL (≈ 0.555 µM); against Haemophilus influenzae, 32 µg/mL (≈ 35.5 µM); against Enterococcus faecalis it was 16 µg/mL (≈ 17.8 µM); in the assay with Staphylococcus aureus it was 8 µg/mL (≈ 8.88 µM); in assay [1] it was 4 µg/mL (≈ 4.44 µM).

Consider `CC[C@H]1OC(=O)[C@H](C)[C@@H](O[C@H]2C[C@@](C)(OC)[C@@H](O)[C@H](C)O2)[C@H](C)[C@@H](O[C@@H]2O[C@H](C)C[C@H](N(C)C)[C@H]2O)[C@](C)(O)C[C@@H](C)[C@@H](n2ccc(C=O)c2)[C@H](C)[C@@H](O)[C@]1(C)O`, for which the MIC turned out to be 1 µg/mL (≈ 1.23 µM) against Streptococcus pneumoniae; 128 µg/mL (≈ 157 µM) in the assay with Haemophilus influenzae; 16 µg/mL (≈ 19.7 µM) against Enterococcus faecalis; 32 µg/mL (≈ 39.4 µM) with Staphylococcus aureus; 8 µg/mL (≈ 9.84 µM) in assay [1].

In the case of `CC[C@H]1OC(=O)[C@H](C)[C@@H](O[C@H]2C[C@@](C)(OC)[C@@H](O)[C@H](C)O2)[C@H](C)[C@@H](O[C@@H]2O[C@H](C)C[C@H](N(C)C)[C@H]2O)[C@](C)(O)C[C@@H](C)[C@@H](n2cccc2)[C@H](C)[C@@H](O)[C@]1(C)O`, the MIC against Streptococcus pneumoniae is 2 µg/mL (≈ 2.55 µM); in the assay with Haemophilus influenzae it was above 128 µg/mL; in the assay with Enterococcus faecalis, 32 µg/mL (≈ 40.8 µM); in the assay with Staphylococcus aureus, 128 µg/mL (≈ 163 µM); in assay [1], 64 µg/mL (≈ 81.5 µM).

As to `CC[C@H]1OC(=O)[C@H](C)[C@@H](O[C@H]2C[C@@](C)(OC)[C@@H](O)[C@H](C)O2)[C@H](C)[C@@H](O[C@@H]2O[C@H](C)C[C@H](N(C)C)[C@H]2O)[C@](C)(O)C[C@@H](C)[C@@H](n2ccc(O)c2C(=O)OC(C)(C)C)[C@H](C)[C@@H](O)[C@]1(C)O`, the MIC in the assay on Streptococcus pyogenes is 8 µg/mL (≈ 8.88 µM); in the assay with Streptococcus pneumoniae, 16 µg/mL (≈ 17.8 µM); in the assay on Haemophilus influenzae, above 128 µg/mL; in the assay with Enterococcus faecalis, 64 µg/mL (≈ 71 µM); in the assay on Staphylococcus aureus, 64 µg/mL (≈ 71 µM); in assay [1], 64 µg/mL (≈ 71 µM).
